Measured values published in ChEMBL document CHEMBL1201862, “PubChem BioAssay data set” (2004).
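Five concentrations, 48 hours, 96-well plates. The concentration for 50% growth inhibition is given as GI50.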 Calls of active or inactive are those of the source. Cut-off read from the data, not from the text of the source: active = GI50 up to about 1.1 µM and inactive = higher.

What was measured:
Assay in all cases: inhibition of tumour cell growth, NCI panel, 48 h
CAKI-1 = system: CAKI-1
HOP-92 = system: HOP-92
SK-OV-3 = system: SK-OV-3
MDA-N = system: MDA-N
M14 = system: M14
NCI-H23 = system: NCI-H23
HL-60 = system: HL-60
UO-31 = system: UO-31
NCI-H460 = system: NCI-H460
HOP-62 = system: HOP-62
UACC-257 = system: UACC-257
SK-MEL-5 = system: SK-MEL-5
RXF 393 = system: RXF 393
HCT-15 = system: HCT-15
K562 = system: K562
SK-MEL-28 = system: SK-MEL-28
ACHN = system: ACHN
SW-620 = system: SW-620
DU-145 = system: DU-145
EKVX = system: EKVX
UACC-62 = system: UACC-62
MCF7 = system: MCF7
SN12C = system: SN12C
NCI-H522 = system: NCI-H522
NCI/ADR-RES = system: NCI/ADR-RES
PC-3 = system: PC-3
HCC 2998 = system: HCC 2998
MDA-MB-231 = system: MDA-MB-231
SK-MEL-2 = system: SK-MEL-2
T47D = system: T47D
786-0 = system: 786-0
LOX IMVI = system: LOX IMVI
HT-29 = system: HT-29
MDA-MB-435 = system: MDA-MB-435
SNB-75 = system: SNB-75
SF-268 = system: SF-268
COLO 205 = system: COLO 205
SNB-19 = system: SNB-19
HCT-116 = system: HCT-116
TK-10 = system: TK-10
Hs-578T = system: Hs-578T
Malme-3M = system: Malme-3M
A549 = system: A549
OVCAR-4 = system: OVCAR-4
OVCAR-8 = system: OVCAR-8
U-251 = system: U-251
OVCAR-5 = system: OVCAR-5
BT-549 = system: BT-549
MOLT-4 = system: MOLT-4
KM12 = system: KM12
A498 = system: A498
IGROV-1 = system: IGROV-1
NCI-H226 = system: NCI-H226
OVCAR-3 = system: OVCAR-3
CCRF-CEM = system: CCRF-CEM
SF-295 = system: SF-295
RPMI-8226 = system: RPMI-8226
SR = system: SR

N#CC12C(=O)N3C(=NC(c4ccccc4)NC3c3ccccc3)C1(C#N)C(c1ccccc1)NC1=C2CCC1 (stereo not drawn)
GI50 (CAKI-1): > 100 µM (inactive)
GI50 (HOP-92): > 100 µM (inactive)
GI50 (SK-OV-3): > 100 µM (inactive)
GI50 (MDA-N): > 100 µM (inactive)
GI50 (M14): > 100 µM (inactive)
GI50 (NCI-H23): > 100 µM (inactive)
GI50 (HL-60): > 100 µM (inactive)
GI50 (UO-31): > 100 µM (inactive)
GI50 (NCI-H460): > 100 µM (inactive)
GI50 (HOP-62): > 100 µM (inactive)
GI50 (UACC-257): > 100 µM (inactive)
GI50 (SK-MEL-5): > 100 µM (inactive)
GI50 (RXF 393): > 100 µM (inactive)
GI50 (HCT-15): > 100 µM
GI50 (K562): 63.5 µM (inactive)
GI50 (SK-MEL-28): > 100 µM (inactive)
GI50 (ACHN): > 100 µM (inactive)
GI50 (SW-620): > 100 µM (inactive)
GI50 (DU-145): > 100 µM (inactive)
GI50 (EKVX): > 100 µM (inactive)
GI50 (UACC-62): > 100 µM (inactive)
GI50 (MCF7): > 100 µM (inactive)
GI50 (SN12C): > 100 µM (inactive)
GI50 (NCI-H522): > 100 µM (inactive)
GI50 (NCI/ADR-RES): > 100 µM (inactive)
GI50 (PC-3): > 100 µM (inactive)
GI50 (HCC 2998): > 100 µM (inactive)
GI50 (MDA-MB-231): > 100 µM (inactive)
GI50 (SK-MEL-2): > 100 µM (inactive)
GI50 (T47D): > 100 µM (inactive)
GI50 (786-0): > 100 µM (inactive)
GI50 (LOX IMVI): > 100 µM (inactive)
GI50 (HT-29): > 100 µM (inactive)
GI50 (MDA-MB-435): > 100 µM (inactive)
GI50 (SNB-75): > 100 µM (inactive)
GI50 (SF-268): > 100 µM (inactive)
GI50 (COLO 205): > 100 µM (inactive)
GI50 (SNB-19): > 100 µM (inactive)
GI50 (HCT-116): > 100 µM (inactive)
GI50 (TK-10): > 100 µM (inactive)
GI50 (Hs-578T): > 100 µM (inactive)
GI50 (Malme-3M): > 100 µM (inactive)
GI50 (A549): > 100 µM (inactive)
GI50 (OVCAR-4): > 100 µM (inactive)
GI50 (OVCAR-8): > 100 µM (inactive)
GI50 (U-251): > 100 µM (inactive)
GI50 (OVCAR-5): > 100 µM (inactive)
GI50 (BT-549): > 100 µM (inactive)
GI50 (MOLT-4): > 100 µM (inactive)
GI50 (KM12): > 100 µM (inactive)
GI50 (A498): > 100 µM (inactive)
GI50 (IGROV-1): > 100 µM (inactive)
GI50 (NCI-H226): > 100 µM (inactive)
GI50 (OVCAR-3): > 100 µM (inactive)
GI50 (CCRF-CEM): > 100 µM (inactive)
GI50 (SF-295): > 100 µM (inactive)
GI50 (RPMI-8226): > 100 µM (inactive)

CCC1(CC)C(=O)N(C(=O)c2ccc(Cl)cc2)N(C(=O)c2ccccc2Cl)C1=O
GI50 (CAKI-1): > 100 µM (inactive)
GI50 (SK-OV-3): > 100 µM (inactive)
GI50 (MDA-N): 39.7 µM (inactive)
GI50 (M14): > 100 µM (inactive)
GI50 (NCI-H23): 32.1 µM (inactive)
GI50 (HL-60): 37.7 µM (inactive)
GI50 (UO-31): > 100 µM (inactive)
GI50 (NCI-H460): 19.3 µM (inactive)
GI50 (HOP-62): 46 µM (inactive)
GI50 (UACC-257): > 100 µM (inactive)
GI50 (SK-MEL-5): 75 µM (inactive)
GI50 (RXF 393): > 100 µM (inactive)
GI50 (HCT-15): 41 µM
GI50 (K562): 45.7 µM (inactive)
GI50 (SK-MEL-28): 98.4 µM (inactive)
GI50 (ACHN): 36.1 µM (inactive)
GI50 (SW-620): 29.4 µM (inactive)
GI50 (DU-145): > 100 µM (inactive)
GI50 (EKVX): 4.58 µM (inactive)
GI50 (SR): 34.9 µM (inactive)
GI50 (UACC-62): 85.3 µM (inactive)
GI50 (MCF7): 43.1 µM (inactive)
GI50 (SN12C): 45.1 µM (inactive)
GI50 (NCI-H522): 14.4 µM (inactive)
GI50 (NCI/ADR-RES): 28.3 µM (inactive)
GI50 (PC-3): > 100 µM (inactive)
GI50 (HCC 2998): > 100 µM (inactive)
GI50 (MDA-MB-231): 50.5 µM (inactive)
GI50 (SK-MEL-2): > 100 µM (inactive)
GI50 (T47D): 62.7 µM (inactive)
GI50 (786-0): 56.8 µM (inactive)
GI50 (LOX IMVI): 21 µM (inactive)
GI50 (HT-29): 10.7 µM (inactive)
GI50 (MDA-MB-435): 11.2 µM (inactive)
GI50 (SNB-75): 16.1 µM (inactive)
GI50 (SF-268): 35.4 µM (inactive)
GI50 (COLO 205): > 100 µM (inactive)
GI50 (SNB-19): 66.1 µM (inactive)
GI50 (HCT-116): 31.6 µM (inactive)
GI50 (TK-10): 31.2 µM (inactive)
GI50 (Hs-578T): 43.5 µM (inactive)
GI50 (Malme-3M): 35.7 µM (inactive)
GI50 (A549): > 100 µM (inactive)
GI50 (OVCAR-4): > 100 µM (inactive)
GI50 (OVCAR-8): 89.9 µM (inactive)
GI50 (U-251): 33.3 µM (inactive)
GI50 (OVCAR-5): > 100 µM (inactive)
GI50 (BT-549): 67.9 µM (inactive)
GI50 (MOLT-4): 20.6 µM (inactive)
GI50 (KM12): 52.8 µM (inactive)
GI50 (IGROV-1): 3.5 µM (inactive)
GI50 (NCI-H226): 16.2 µM (inactive)
GI50 (OVCAR-3): 27.1 µM (inactive)
GI50 (CCRF-CEM): 40.8 µM (inactive)
GI50 (SF-295): 63.5 µM (inactive)
GI50 (RPMI-8226): 25.8 µM (inactive)
